Experiments:
Experiment in all cases: Ras-Raf disruption / FRET / MOA assay (BRAF RBD)
Type in all cases: biochemical
[1] = molecular target: KRAS G12C (Homo sapiens, UniProt P01116+P62937, G12C); details: Ras-Raf disruption, with Cyclophilin A; read-out: KRAS G12C FRET data IC50
Procedure, shortened: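 TR-FRET read-out after 1.5 h with anti-His Eu-W1024 (10 nM) and anti-GST APC (50 nM), following 3 h at 25 °C of compound (top 30 μM, 3-fold, 10 points) with 25 μM Cyclophilin A, 12.5 nM GMPPNP-loaded K-Ras G12C and 50 nM BRAF RBD; IC50 reported.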

[2] = molecular target: NRAS Q61R (Homo sapiens, UniProt P01111+P62937, Q61R); details: NRAS Q61R; read-out: NRAS Q61R FRET data IC50
Procedure, shortened: (§1)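 Compound-induced Ras–Cyclophilin A ternary complex disrupting BRAF RBD binding, read as IC50 from reduced TR-FRET ratio relative to DMSO. Final: Ras-GMPPNP 12.5 nM, BRAF RBD 50 nM, Cyclophilin A 25 μM, top compound 30 μM (3-fold, 10 points); 3 h at 25 °C, then 1.5 h with detection antibodies.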

[3] = molecular target: NRAS G12C (Homo sapiens, UniProt P01111+P62937, G12C); details: NRAS G12C; read-out: NRAS G12C FRET data IC50
Procedure, shortened: as §1

[4] = molecular target: KRAS WT (Homo sapiens, UniProt P01116+P62937); details: Ras-Raf disruption, with Cyclophilin A; read-out: KRAS WT FRET data IC50
Procedure, shortened: as §1

[5] = molecular target: KRAS G12V (Homo sapiens, UniProt P01116+P62937, G12V); details: Ras-Raf disruption, with Cyclophilin A; read-out: KRAS G12V FRET data IC50
Procedure, shortened: as §1

[6] = molecular target: KRAS G12S (Homo sapiens, UniProt P01116+P62937, G12S); details: Ras-Raf disruption, with Cyclophilin A; read-out: KRAS G12S FRET data IC50
Procedure, shortened: as §1

[7] = molecular target: KRAS G13C (Homo sapiens, UniProt P01116+P62937, G13C); details: Ras-Raf disruption, with Cyclophilin A; read-out: KRAS G13C FRET data IC50
Procedure, shortened: as §1

[8] = molecular target: NRAS WT (Homo sapiens, UniProt P01111+P62937); details: NRAS WT; read-out: NRAS WT FRET data IC50
Procedure, shortened: as §1

[9] = molecular target: NRAS Q61K (Homo sapiens, UniProt P01111+P62937, Q61K); details: NRAS Q61K; read-out: NRAS Q61K FRET data IC50
Procedure, shortened: as §1

[10] = molecular target: KRAS G13D (Homo sapiens, UniProt P01116+P62937, G13D); details: Ras-Raf disruption, with Cyclophilin A; read-out: KRAS G13D FRET data IC50
Procedure, shortened: as §1

[11] = molecular target: KRAS G12D (Homo sapiens, UniProt P01116+P62937, G12D); details: Ras-Raf disruption, with Cyclophilin A; read-out: KRAS G12D FRET data IC50
Procedure, shortened: as §1

[12] = molecular target: KRAS Q61H (Homo sapiens, UniProt P01116+P62937, Q61H); details: KRAS Q61H; read-out: KRAS Q61H FRET data IC50
Procedure, shortened: as §1

Chain of KRAS G12D (P01116 1-169 isoform P01116-2 G12D limits assumed): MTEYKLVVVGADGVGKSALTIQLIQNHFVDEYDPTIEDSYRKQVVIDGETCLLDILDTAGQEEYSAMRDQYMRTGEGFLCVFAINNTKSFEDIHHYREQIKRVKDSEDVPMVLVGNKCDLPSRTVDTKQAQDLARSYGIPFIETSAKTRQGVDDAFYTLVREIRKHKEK
Chain of KRAS G12D (P62937 whole entry): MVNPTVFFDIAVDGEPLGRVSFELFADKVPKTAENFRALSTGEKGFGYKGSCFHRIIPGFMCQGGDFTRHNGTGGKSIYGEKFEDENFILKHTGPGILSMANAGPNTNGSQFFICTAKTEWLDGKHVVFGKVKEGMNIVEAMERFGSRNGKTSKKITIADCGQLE
Chain of KRAS G13C (P01116 1-169 isoform P01116-2 G13C limits assumed): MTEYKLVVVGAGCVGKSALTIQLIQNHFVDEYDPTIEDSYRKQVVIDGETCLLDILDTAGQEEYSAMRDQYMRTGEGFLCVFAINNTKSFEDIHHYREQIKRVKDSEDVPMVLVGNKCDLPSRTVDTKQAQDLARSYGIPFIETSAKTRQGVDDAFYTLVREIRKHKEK
Chain of KRAS G13C (P62937 whole entry): as the sequence (P62937 whole entry) above
Chain of KRAS WT (P01116 1-169 isoform P01116-2 limits assumed): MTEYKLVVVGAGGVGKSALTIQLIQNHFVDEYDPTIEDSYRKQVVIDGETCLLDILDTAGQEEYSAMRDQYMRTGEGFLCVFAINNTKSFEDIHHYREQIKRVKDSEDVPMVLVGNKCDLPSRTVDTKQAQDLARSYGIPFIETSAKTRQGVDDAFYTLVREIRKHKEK
Chain of KRAS WT (P62937 whole entry): as the sequence (P62937 whole entry) above
Chain of NRAS Q61K (P01111 whole entry Q61K): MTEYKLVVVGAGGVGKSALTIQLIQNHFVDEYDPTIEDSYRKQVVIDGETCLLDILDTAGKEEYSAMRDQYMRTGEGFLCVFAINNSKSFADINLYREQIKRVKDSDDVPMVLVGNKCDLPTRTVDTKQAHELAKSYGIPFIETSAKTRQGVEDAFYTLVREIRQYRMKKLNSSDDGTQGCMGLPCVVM
Chain of NRAS Q61K (P62937 whole entry): as the sequence (P62937 whole entry) above
Chain of KRAS G12V (P01116 1-169 isoform P01116-2 G12V limits assumed): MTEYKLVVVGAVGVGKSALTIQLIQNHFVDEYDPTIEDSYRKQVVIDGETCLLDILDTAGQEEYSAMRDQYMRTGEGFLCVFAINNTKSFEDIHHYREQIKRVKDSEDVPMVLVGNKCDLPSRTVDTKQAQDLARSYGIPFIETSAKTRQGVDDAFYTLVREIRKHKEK
Chain of KRAS G12V (P62937 whole entry): as the sequence (P62937 whole entry) above
Chain of KRAS G13D (P01116 1-169 isoform P01116-2 G13D limits assumed): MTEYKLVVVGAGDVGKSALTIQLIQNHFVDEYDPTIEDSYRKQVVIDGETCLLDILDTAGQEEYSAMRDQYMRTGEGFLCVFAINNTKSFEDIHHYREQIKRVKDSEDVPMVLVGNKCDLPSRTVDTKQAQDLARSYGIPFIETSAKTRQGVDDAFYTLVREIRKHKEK
Chain of KRAS G13D (P62937 whole entry): as the sequence (P62937 whole entry) above
Chain of NRAS WT (P01111 whole entry): as the sequence (P01111 whole entry Q61K) above, with K61Q counted along it
Chain of NRAS WT (P62937 whole entry): as the sequence (P62937 whole entry) above
Chain of KRAS Q61H (P01116 1-169 isoform P01116-2 Q61H limits assumed): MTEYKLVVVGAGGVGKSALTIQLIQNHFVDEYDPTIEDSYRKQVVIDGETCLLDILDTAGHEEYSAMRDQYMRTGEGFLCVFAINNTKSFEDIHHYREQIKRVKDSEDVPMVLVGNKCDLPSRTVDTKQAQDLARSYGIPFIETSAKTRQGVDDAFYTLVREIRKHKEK
Chain of KRAS Q61H (P62937 whole entry): as the sequence (P62937 whole entry) above
Chain of NRAS G12C (P01111 whole entry G12C): as the sequence (P01111 whole entry Q61K) above, with G12C, K61Q counted along it
Chain of NRAS G12C (P62937 whole entry): as the sequence (P62937 whole entry) above
Chain of KRAS G12S (P01116 1-169 isoform P01116-2 G12S limits assumed): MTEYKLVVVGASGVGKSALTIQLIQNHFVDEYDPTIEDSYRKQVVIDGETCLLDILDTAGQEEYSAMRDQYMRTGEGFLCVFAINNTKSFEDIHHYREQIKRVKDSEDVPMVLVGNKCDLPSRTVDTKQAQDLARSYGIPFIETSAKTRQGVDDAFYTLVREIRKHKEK
Chain of KRAS G12S (P62937 whole entry): as the sequence (P62937 whole entry) above
Chain of NRAS Q61R (P01111 whole entry Q61R): as the sequence (P01111 whole entry Q61K) above, with K61R counted along it
Chain of NRAS Q61R (P62937 whole entry): as the sequence (P62937 whole entry) above
Chain of KRAS G12C (P01116 1-169 isoform P01116-2 G12C limits assumed): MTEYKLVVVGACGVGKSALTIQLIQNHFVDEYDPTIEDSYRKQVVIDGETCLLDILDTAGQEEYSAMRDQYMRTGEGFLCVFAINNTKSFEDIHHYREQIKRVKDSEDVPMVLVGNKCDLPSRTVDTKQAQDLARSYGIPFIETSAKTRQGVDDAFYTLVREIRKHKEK
Chain of KRAS G12C (P62937 whole entry): as the sequence (P62937 whole entry) above

Row | SMILES | IC50 [1] [µM] | IC50 [2] [µM] | IC50 [3] [µM] | IC50 [4] [µM] | IC50 [5] [µM] | IC50 [6] [µM] | IC50 [7] [µM] | IC50 [8] [µM] | IC50 [9] [µM] | IC50 [10] [µM] | IC50 [11] [µM] | IC50 [12] [µM]
1 | CCn1c(-c2cccnc2[C@H](C)OC)c2c3cc(ccc31)-c1csc(n1)C[C@H](NC(=O)[C@H](C(C)C)N(C)C(=O)N1CCN(C(=O)[C@H]3CN3)[C@@H](C)C1)C(=O)N1CCC[C@H](N1)C(=O)OCC(C)(C)C2 [Example 297] | 0.01 to 0.1 | 0.01 to 0.1 | 0.01 to 0.1 | 0.01 to 0.1 | 0.1 to 1 | 0.1 to 1 | 0.01 to 0.1 | 0.01 to 0.1 | 0.01 to 0.1 | 0.1 to 1 | 0.1 to 1 | 0.01 to 0.1
2 | CCn1c(-c2cccnc2[C@H](C)OC)c2c3cc(ccc31)-c1csc(n1)C[C@H](NC(=O)[C@H](C(C)C)N(C)C(=O)N1CCN(C(=O)[C@@H]3CN3)[C@@H](C)C1)C(=O)N1CCC[C@H](N1)C(=O)OCC(C)(C)C2 [Example 298] | 0.01 to 0.1 | 0.01 to 0.1 | 0.01 to 0.1 | 0.01 to 0.1 | 0.1 to 1 | 0.01 to 0.1 | 0.1 to 1 | 0.01 to 0.1 | 0.01 to 0.1 | 0.1 to 1 | 0.1 to 1 | 0.01 to 0.1
3 | CCn1c(-c2cccnc2[C@H](C)OC)c2c3cc(ccc31)-c1csc(n1)C[C@H](NC(=O)[C@H](C(C)C)N(C)C(=O)N1CCN(C(=O)[C@H]3CN3)[C@H](C)C1)C(=O)N1CCC[C@H](N1)C(=O)OCC(C)(C)C2 [Example 299] | 0.01 to 0.1 | 0.1 to 1 | 0.01 to 0.1 | 0.1 to 1 | 0.1 to 1 | 0.1 to 1 | 0.1 to 1 | 0.1 to 1 | 0.01 to 0.1 | 0.1 to 1 | 0.1 to 1 | 0.01 to 0.1
4 | CCn1c(-c2cccnc2[C@H](C)OC)c2c3cc(ccc31)-c1csc(n1)C[C@H](NC(=O)[C@H](C(C)C)N(C)C(=O)N1CCN(C(=O)[C@@H]3CN3)[C@H](C)C1)C(=O)N1CCC[C@H](N1)C(=O)OCC(C)(C)C2 [Example 300] | 0.1 to 1 | 0.1 to 1 | 0.01 to 0.1 | 0.1 to 1 | 0.1 to 1 | 0.1 to 1 | 0.1 to 1 | 0.1 to 1 | 0.01 to 0.1 | 0.1 to 1 | 0.1 to 1 | 0.01 to 0.1
5 | CCn1c(-c2cccnc2[C@H](C)OC)c2c3cc(ccc31)-c1csc(n1)C[C@H](NC(=O)[C@H](C(C)C)N(C)C(=O)N1CCN(C(=O)[C@H]3CN3)C[C@H]1C)C(=O)N1CCC[C@H](N1)C(=O)OCC(C)(C)C2 [Example 301] | 0.01 to 0.1 | 0.01 to 0.1 | 0.01 to 0.1 | 0.01 to 0.1 | 0.1 to 1 | 0.01 to 0.1 | 0.01 to 0.1 | 0.01 to 0.1 | 0.01 to 0.1 | 0.1 to 1 | 0.1 to 1 | 0.01 to 0.1
6 | CCn1c(-c2cccnc2[C@H](C)OC)c2c3cc(ccc31)-c1csc(n1)C[C@H](NC(=O)[C@H](C(C)C)N(C)C(=O)N1CCN(C(=O)[C@@H]3CN3)C[C@H]1C)C(=O)N1CCC[C@H](N1)C(=O)OCC(C)(C)C2 [Example 302] | 0.01 to 0.1 | 0.01 to 0.1 | 0.01 to 0.1 | 0.01 to 0.1 | 0.01 to 0.1 | 0.01 to 0.1 | 0.1 to 1 | 0.01 to 0.1 | 0.01 to 0.1 | 0.1 to 1 | 0.1 to 1 | 0.01 to 0.1

Source: patent publication US20230233569A1 (Revolution Medicines, Inc., priority 2020, published 2023)
